Data as given in PubChem BioAssay AID1845217 (Molecular Pharmacology Branch, DTP, NCI, 2023).
pIC50: −log10 of the molar value.

System: VA-ES-BJ tumor spheroid viability
Assay: Anticancer human tumor VA-ES-BJ cell line growth inhibition;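 further: spheroids exposed to compounds for seven days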;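 on viability, T/C: percent of DMSO vehicle control viability so 100% = untreated growth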
Settings: spheroids with HUVEC and MSC; for pIC50: curve of first compound; for viability, T/C: stronger effect = lower value
Summary of the method: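 Complex tumor spheroids combined malignant cells with endothelial cells and mesenchymal stem cells. DNA-damaging drugs and DNA repair inhibitors were tested alone and in combination, at half-log dilutions down from clinical Cmax (top 10 microM if Cmax unknown), 0.25% DMSO final.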

[1] = second compound 1 µM, first compound 0.00949 µM
[2] = second compound 1 µM, first compound 0.03 µM
[3] = second compound 1 µM, first compound 0.0949 µM
[4] = second compound 1 µM, first compound 0.3 µM
[5] = second compound 1 µM, first compound 0.949 µM
[6] = second compound 1 µM, first compound 3 µM
[7] = second compound 3.16 µM, first compound 0.00949 µM
[8] = second compound 3.16 µM, first compound 0.03 µM
[9] = second compound 3.16 µM, first compound 0.0949 µM
[10] = second compound 3.16 µM, first compound 0.3 µM
[11] = second compound 3.16 µM, first compound 0.949 µM
[12] = second compound 3.16 µM, first compound 3 µM
[13] = second compound 10 µM, first compound 0.00949 µM
[14] = second compound 10 µM, first compound 0.03 µM
[15] = second compound 10 µM, first compound 0.0949 µM
[16] = second compound 10 µM, first compound 0.3 µM
[17] = second compound 10 µM, first compound 0.949 µM
[18] = second compound 10 µM, first compound 3 µM
[19] = second compound 31.6 µM, first compound 0.00949 µM
[20] = second compound 31.6 µM, first compound 0.03 µM
[21] = second compound 31.6 µM, first compound 0.0949 µM
[22] = second compound 31.6 µM, first compound 0.3 µM
[23] = second compound 31.6 µM, first compound 0.949 µM
[24] = second compound 31.6 µM, first compound 3 µM
[25] = second compound 100 µM, first compound 0.00949 µM
[26] = second compound 100 µM, first compound 0.03 µM
[27] = second compound 100 µM, first compound 0.0949 µM
[28] = second compound 100 µM, first compound 0.3 µM
[29] = second compound 100 µM, first compound 0.949 µM
[30] = second compound 100 µM, first compound 3 µM

Row | Structure (SMILES) | pIC50 (second compound 1 µM) | pIC50 (second compound 3.16 µM) | pIC50 (second compound 10 µM) | pIC50 (second compound 31.6 µM) | pIC50 (second compound 100 µM) | viability, T/C [3] [%] | viability, T/C [4] [%] | viability, T/C [5] [%] | viability, T/C [6] [%] | viability, T/C [9] [%] | viability, T/C [10] [%] | viability, T/C [11] [%] | viability, T/C [12] [%] | viability, T/C [15] [%] | viability, T/C [16] [%] | viability, T/C [17] [%] | viability, T/C [18] [%] | viability, T/C [21] [%] | viability, T/C [22] [%] | viability, T/C [23] [%] | other results
1 | CNCc1ccc(-c2cc(-c3nc(-c4ccc(S(=O)(=O)C(C)C)cc4)cnc3N)on2)cc1 + Cn1nnc2c(C(N)=O)ncn2c1=O | 6.39 | 6.43 | 6.47 | 6.54 | 6.73 | 84 | 63.3 | 11.8 | 2.45 | 74.4 | 59.9 | 12.8 | 1.99 | 79.1 | 56.1 | 10.4 | 2.81 | 72.7 | 53.5 | 10.2 | viability, T/C [1]: 87.8%; viability, T/C [2]: 82%; viability, T/C [7]: 85.5%; viability, T/C [8]: 85.3%; viability, T/C [13]: 86.9%; viability, T/C [14]: 92.2%; viability, T/C [19]: 91.1%; viability, T/C [20]: 85%; viability, T/C [24]: 3.57%; viability, T/C [25]: 95.6%; viability, T/C [26]: 76.7%; viability, T/C [27]: 68%; viability, T/C [28]: 41.7%; viability, T/C [29]: 11.7%; viability, T/C [30]: 2.21%
2 | Cc1sc2c(c1C)C(c1ccc(Cl)cc1)=NC(CC(=O)Nc1ccc(O)cc1)c1nnc(C)n1-2 (stereo not given) + Cn1nnc2c(C(N)=O)ncn2c1=O | 6.99 | 7.03 | 7.08 | 7.09 | 7.16 | 51.6 | 33.5 | 25.9 | 17.1 | 50.7 | 31.1 | 19.9 | 17.7 | 49.1 | 30.8 | 24.8 | 15.8 | 51.2 | 31.9 | 21.3 | viability, T/C [1]: 83.5%; viability, T/C [2]: 69%; viability, T/C [7]: 81.3%; viability, T/C [8]: 68.3%; viability, T/C [13]: 81.2%; viability, T/C [14]: 65.2%; viability, T/C [19]: 81.1%; viability, T/C [20]: 61.1%; viability, T/C [24]: 12.4%; viability, T/C [25]: 91.2%; viability, T/C [26]: 60.1%; viability, T/C [27]: 47.5%; viability, T/C [28]: 29.5%; viability, T/C [29]: 14.4%; viability, T/C [30]: 7.67%
3 | Cn1ncnc1[C@H]1c2n[nH]c(=O)c3cc(F)cc(c23)N[C@@H]1c1ccc(F)cc1 + Cn1nnc2c(C(N)=O)ncn2c1=O | 6.27 | 6.67 | 7.24 | > 8.02 | > 8.02 | 81.8 | 68.7 | 33.1 | 7.3 | 68.4 | 55.3 | 25.1 | 7.36 | 42.8 | 26.3 | 10.4 | 7.26 | 13.4 | 10.1 | 7.36 | viability, T/C [1]: 97.4%; viability, T/C [2]: 90.7%; viability, T/C [7]: 94.4%; viability, T/C [8]: 51.4%; viability, T/C [13]: 72.3%; viability, T/C [14]: 58.8%; viability, T/C [19]: 33%; viability, T/C [20]: 20.1%; viability, T/C [24]: 5.8%; viability, T/C [25]: 12.1%; viability, T/C [26]: 7.76%; viability, T/C [27]: 7.62%; viability, T/C [28]: 7.16%; viability, T/C [29]: 6.55%; viability, T/C [30]: 5.96%
4 | O=C(c1cc(Cc2n[nH]c(=O)c3ccccc23)ccc1F)N1CCN(C(=O)C2CC2)CC1 + Cn1nnc2c(C(N)=O)ncn2c1=O | < 4.52 | 4.60 | 5.01 | 5.46 | 6.17 | 114 | 110 | 111 | 110 | 103 | 110 | 96.8 | 106 | 110 | 113 | 111 | 87.4 | 102 | 112 | 100 | viability, T/C (second compound 1 µM, first compound 9.49 µM): 75%; viability, T/C (second compound 1 µM, first compound 30 µM): 58.5%; viability, T/C (second compound 3.16 µM, first compound 9.49 µM): 78.8%; viability, T/C (second compound 3.16 µM, first compound 30 µM): 45.2%; viability, T/C (second compound 10 µM, first compound 9.49 µM): 51.9%; viability, T/C (second compound 10 µM, first compound 30 µM): 17%; viability, T/C [24]: 54%; viability, T/C (second compound 31.6 µM, first compound 9.49 µM): 16.8%; viability, T/C (second compound 31.6 µM, first compound 30 µM): 8.16%; viability, T/C [27]: 77%; viability, T/C [28]: 72%; viability, T/C [29]: 40%; viability, T/C [30]: 15.7%; viability, T/C (second compound 100 µM, first compound 9.49 µM): 7.74%; viability, T/C (second compound 100 µM, first compound 30 µM): 6.29%
